Experimental data: US20130331610A1, “Halogenated Pyrazolo[1,5-A]Pyrimidines, Processes, Uses, Compositions and Intermediates” (priority 2005, published 2013)
Like-named read-outs stand apart in the source and are kept apart here.

How the values were obtained:
motor activity of mice = experiment: In vivo predictive sedation-hypnosis test in mice (inhibition of traveled distance); set-up: species or system mouse; conditions: for inhibition in vivo at 0.98 µmol/kg / inhibition in vivo at 98 µmol/kg / inhibition in vivo at 3 µmol/kg: Mus musculus, read-out: % Inhib motor activity; for inhibition in vivo at 0.98 µmol/kg: 0.98 μmol/kg; for inhibition in vivo at 0.98 µmol/kg / inhibition in vivo at 98 µmol/kg / inhibition in vivo at 3 µmol/kg / inhibition percentage (motor activity): mice; for inhibition in vivo at 98 µmol/kg: 98 μmol/kg; for inhibition in vivo at 3 µmol/kg: 3 μmol/kg; for inhibition percentage (motor activity): 3 μmol/kg po
Procedure: 2—In Vivo Determination of Predictive Sedative-Hypnotic Action
The in vivo effects of these compounds were assessed by a predictive sedation-hypnosis test in mice (D. J. Sanger et al., Eur. J. Pharmacol., 313, 35-42, 1996; and G. Griebel et al., Psychopharmacology, 146, 205-213, 1999).
Groups of 5-8 male CD1 mice, weighing 22-26 g at the time of testing, were used. The test compounds were administered in single equimolecular intraperitoneal doses, suspended in 0.25% agar with one drop of Tween 80 in a volume of 10 ml/kg. Two doses were tested in each route. Control animals received the vehicle alone. Using a Smart System (Panlab, S. L., Spain) the traveled distance in cm was recorded for each mouse at 5-min intervals during a period of 30 minutes after intraperitoneal (ip) dosing and 60 minutes after oral (po) dosing. The inhibition percentage of traveled distance of treated animals versus control animals (the first 5 min were discarded) was calculated.

[1] = target: α2 subunit of GABAA receptor (Rattus norvegicus, UniProt P18508+P23576); experiment: biochemical; conditions: for inhibition at 10 µM: read-out: % Inhib 10^−5 M; for inhibition at 0.1 µM: read-out: % Inhib 10^−7 M
Procedure: Determination of the Affinity of Test Compounds for α1- and α2-GABAA Receptor
Male Sprague-Dawley rats weighing 200-250 g at the time of experiment were used. After decapitation, the cerebellum (tissue that mostly contains α1-GABAA receptor) and spinal cord (tissue that mostly contains α2-GABAA receptor) were removed. […] Once the tissues weighed, they were suspended in 50 mM Tris.HCl (pH 7.4), 1:40 (v/v), or sucrose 0.32 M in the case of spinal cord, homogenized and then centrifuged at 20000 g for 10 min at 7° C. The resulting pellet was resuspended under the same conditions and centrifuged again. The pellet was finally resuspended on a minimum volume and kept at −80° C. overnight. On the next day, the process was repeated until the final pellet was resuspended at a ratio of 1:10 (v/v) in the case of cerebellum and at a ratio of 1:5 (v/v) in the case of spinal cord.
Affinity was determined by competitive tests using radiolabeled flumazenil as ligand. […] Simultaneously, the membranes were only incubated with the radiolabeled flumazenil (total binding, 100%) and in the presence of an elevated concentration of unradiolabeled flumazenil (non-specific binding, % estimation of radiolabeled ligand). The reactions started on adding the radiolabeled ligand followed by incubation for 60 minutes at 4° C. At the end of the incubation period, 200 μl of reaction were transferred to a multiscreen plate (Millipore) and filtered using a vacuum manifold and then washed three times with cold test buffer. The multiscreen plates were equipped with a GF/B filter that retained the membranes containing the receptors and the radiolabeled ligand which had been bound to the receptors. After washing, the plates were left till dry. Once dried, scintillation liquid was added and left under stirring overnight. The next day the plates were counted using a Perkin-Elmer Microbeta scintillation counter.
where, X: amount of bound ligand for every concentration of compound. T: total binding, maximum amount bound to the radiolabeled ligand. N: non-specific binding, amount of radiolabeled ligand bound in a non-specific way irrespective of the receptor used.
Every concentrations of each compound were tested in triplicate and their mean values were used to determine the experimental values of % specific binding versus the concentration of compound.

[2] = target: α1 subunit of GABAA receptor (Rattus norvegicus, UniProt P18508+P62813); experiment: biochemical; conditions: for inhibition at 10 µM: read-out: % Inhib 10^−5 M; for inhibition at 0.1 µM: read-out: % Inhib 10^−7 M
Description: % specific binding=(X−N/T−N)×100

[3] = Metabolic stability in human hepatocytes cytosolic fraction; format: in vitro ADME; conditions: 5 μM, 1.0 mg/ml human cytosol, 37° C.
Procedure: In Vitro Determination of Metabolic Stability in Human Hepatocytes Cytosolic Fraction
Compounds were dissolved in DMSO to achieve an initial concentration of 10 mM. This stock solution was then diluted with solvent and buffer to obtain final assay concentration of 5 μM. Compounds were tested at a single concentration of 5 μM in duplicate incubating with 1.0 mg/ml of pooled human cytosol (obtained from Xenotech plc) at 37° C. Metabolism was assessed in the presence or absence of cofactors and measured as loss of parent compound by LC/MS analysis at 0, 60 and 120-minutes time points. Percent parent remaining was then calculated. A generic LC method was used: • Mobile phase: • A=0.1% Formic acid in water • B=0.1% Formic acid in acetonitrile • HPLC Column: Higgins Clipius C18 5 μm, 50×3 mm • Flow rate: 2 ml·min^−1

[4] = Pharmacokinetic profile after single intravenous dose in rats; format: in vivo; conditions: rat; for Vd / clearance / half-life: male, Sprague-Dawley, plasma; for Vd / clearance / half-life / AUC0-t: mean
Procedure: In Vivo Determination of Pharmacokinetic Profile after Single Dose
Indiplon was used as reference compound. Three male Sprague-Dawley rats, weighing 250-300 g were used for each compound. The sampling was performed by retroorbital sinus puncture at the following time points 2.5, 5, 30, 60, 120, 180, 300 and 420 min post-administration. The samples were kept in an ice-bath until plasma separation. The animals were anaesthetized by isoflurane inhaled at each extraction. Plasma was separated by centrifugation (10 min, 4° C., 4500 rpm) and stored at temperature below −70° C. until analysis.
An analytical method based on an extraction of each compound by liquid-solid extraction and subsequent determination by LC/MS or LC/MS/MS using an internal standard (IS) was used.
Calculation of pharmacokinetic parameters (AUC0-t=area under the curve from zero to last extraction time-point, Cl=clearance, t1/2=half-life and Vd=volume of distribution) according to non-compartmental analysis was performed.

HepG2 cells = experiment: In vitro cell toxicity in HepG2 at 24 h (MTS); format: cell-based, human; conditions: for cytotoxicity compared with prior art compounds: HepG2, 24 h; for cell toxicity in HepG2, percentage of control (relative cell viability): 100 μM, 24 h, MTS
Procedure: In Vitro Determination of Cell Toxicity in HepG2 at 24 h
HepG2 cells (human hepatocellular carcinoma) were obtained from the American Type Culture Collection (ATCC) and cultured in Eagle's Minimum Essential Medium (Eagle) with Earle's balanced salt solution adjusted to contain 1.87 mM Glutamax™ I, 0.1 mM non-essential amino acids, 1.0 mM sodium pyruvate, 100000 U/L penicillin, 10000 μg/L streptomycin 90%; fetal bovine serum, 10%. Promega CellTiter 96® Aqueous Non-Radioactive Cell Viability Assay contains the tetrazolium compound [3-(4,5-dimethylthiazol-2-yl)-5-(3-carboxymethoxyphenyl)-2-(4-sulfophenyl)-2H-tetrazolium, inner salt (MTS). The conversion of MTS into the aqueous soluble formazan product is accomplished by dehydrogenase enzymes found in metabolically active cells. The quantity of formazan product is directly proportional to the number of living cells in culture.
Compounds were dissolved in DMSO to achieve an initial concentration of 100 mM. Serial dilutions were made from this stock solution into DMSO to achieve concentrations of 10, 1, 0.1 and 0.01 mM. The stock solution and serial dilutions were then diluted 1:100 with cell culture medium to obtain […] final assay concentrations of […]. The final DMSO concentration in all wells was 1% v/v. HepG2 cells were incubated with test compounds for 24 hours. Relative cell viability was determined spectrophotometrically at 490 nm following the addition of the MTS dye and further one-hour incubation. Tamoxifen was used as the positive control.
The percent absorbance of the samples treated with the test article was compared to the untreated sample to calculate the percentage of control.

α2 subunit of GABAA receptor, sequence (P23576 29-451): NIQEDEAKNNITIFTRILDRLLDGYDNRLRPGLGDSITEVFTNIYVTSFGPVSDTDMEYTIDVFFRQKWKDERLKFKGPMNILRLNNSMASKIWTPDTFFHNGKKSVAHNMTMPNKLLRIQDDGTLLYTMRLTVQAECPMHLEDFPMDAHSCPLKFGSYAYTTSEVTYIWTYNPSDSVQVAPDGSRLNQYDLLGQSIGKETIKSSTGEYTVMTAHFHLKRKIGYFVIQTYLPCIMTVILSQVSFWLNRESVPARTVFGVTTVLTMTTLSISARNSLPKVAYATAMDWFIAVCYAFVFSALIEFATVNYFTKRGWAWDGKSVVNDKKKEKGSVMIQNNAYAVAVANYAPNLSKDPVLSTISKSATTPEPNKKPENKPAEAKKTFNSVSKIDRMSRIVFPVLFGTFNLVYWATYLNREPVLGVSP
α2 subunit of GABAA receptor, sequence (P18508 39-466): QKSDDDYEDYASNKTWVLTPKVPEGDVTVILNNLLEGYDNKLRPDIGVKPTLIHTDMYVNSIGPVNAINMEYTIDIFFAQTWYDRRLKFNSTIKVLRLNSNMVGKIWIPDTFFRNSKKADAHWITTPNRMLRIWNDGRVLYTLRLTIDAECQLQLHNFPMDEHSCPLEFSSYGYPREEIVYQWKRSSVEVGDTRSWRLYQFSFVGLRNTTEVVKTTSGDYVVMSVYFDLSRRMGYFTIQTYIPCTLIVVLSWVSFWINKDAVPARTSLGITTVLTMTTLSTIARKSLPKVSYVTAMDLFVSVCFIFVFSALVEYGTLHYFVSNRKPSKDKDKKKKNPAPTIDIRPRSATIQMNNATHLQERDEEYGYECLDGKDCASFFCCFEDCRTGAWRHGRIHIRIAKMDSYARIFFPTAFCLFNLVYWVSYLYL
α2 subunit of GABAA receptor, sequence (P63079 26-473 partner): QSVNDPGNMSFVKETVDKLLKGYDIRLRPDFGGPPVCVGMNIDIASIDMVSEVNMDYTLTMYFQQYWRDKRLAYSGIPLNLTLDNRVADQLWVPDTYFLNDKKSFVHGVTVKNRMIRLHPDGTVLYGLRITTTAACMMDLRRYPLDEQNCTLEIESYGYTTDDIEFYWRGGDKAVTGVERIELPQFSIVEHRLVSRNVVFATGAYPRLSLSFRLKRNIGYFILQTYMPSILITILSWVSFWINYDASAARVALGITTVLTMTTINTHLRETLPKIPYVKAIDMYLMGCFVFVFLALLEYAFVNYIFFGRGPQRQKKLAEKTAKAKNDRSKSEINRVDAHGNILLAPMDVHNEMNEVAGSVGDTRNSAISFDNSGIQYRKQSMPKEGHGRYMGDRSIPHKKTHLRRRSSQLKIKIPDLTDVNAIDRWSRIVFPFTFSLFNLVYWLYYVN
α1 subunit of GABAA receptor, sequence (P62813 28-455): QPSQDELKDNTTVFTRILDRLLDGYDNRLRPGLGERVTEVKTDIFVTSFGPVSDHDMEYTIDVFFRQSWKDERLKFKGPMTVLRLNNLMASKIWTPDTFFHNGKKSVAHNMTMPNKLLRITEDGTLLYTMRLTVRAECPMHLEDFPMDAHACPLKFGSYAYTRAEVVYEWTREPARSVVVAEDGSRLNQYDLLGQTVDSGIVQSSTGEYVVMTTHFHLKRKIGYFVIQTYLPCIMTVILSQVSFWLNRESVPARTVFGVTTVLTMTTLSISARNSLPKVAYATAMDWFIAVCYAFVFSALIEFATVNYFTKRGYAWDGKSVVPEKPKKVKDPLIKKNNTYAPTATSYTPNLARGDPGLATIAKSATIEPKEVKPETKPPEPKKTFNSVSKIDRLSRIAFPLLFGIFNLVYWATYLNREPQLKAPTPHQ
α1 subunit of GABAA receptor, sequence (P18508 39-466): as the sequence (P18508 39-466) above
α1 subunit of GABAA receptor, sequence (P63138 26-474 partner): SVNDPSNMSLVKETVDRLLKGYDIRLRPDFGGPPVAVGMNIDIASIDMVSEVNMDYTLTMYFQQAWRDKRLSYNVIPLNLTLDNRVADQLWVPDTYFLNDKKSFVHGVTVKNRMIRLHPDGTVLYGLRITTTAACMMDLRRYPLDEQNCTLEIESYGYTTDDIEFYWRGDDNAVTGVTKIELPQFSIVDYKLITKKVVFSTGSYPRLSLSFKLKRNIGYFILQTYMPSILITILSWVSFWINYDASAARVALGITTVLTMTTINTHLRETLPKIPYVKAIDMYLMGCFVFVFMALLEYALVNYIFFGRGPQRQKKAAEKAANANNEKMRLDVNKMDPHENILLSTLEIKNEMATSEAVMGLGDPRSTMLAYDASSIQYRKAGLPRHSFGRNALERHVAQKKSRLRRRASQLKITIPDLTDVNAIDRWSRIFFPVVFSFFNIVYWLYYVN

Compound	inhibition in vivo at 0.98 µmol/kg (motor activity of mice; ip) [%]	inhibition in vivo at 98 µmol/kg (motor activity of mice; ip) [%]	inhibition at 10 µM [1] [%]	inhibition at 0.1 µM [1] [%]	inhibition at 10 µM [2] [%]	inhibition at 0.1 µM [2] [%]	inhibition in vivo at 3 µmol/kg (motor activity of mice; po) [%]	inhibition in vivo at 98 µmol/kg (motor activity of mice; po) [%]	Percent parent remaining ([3]; 60 min) [%]	Percent parent remaining ([3]; 120 min) [%]	cytotoxicity compared with prior art compounds (HepG2 cells)	cell toxicity in HepG2, percentage of control (relative cell viability) (HepG2 cells) [%]	further results
CN(c1cccc(-c2ccnc3c(C(=O)c4cccs4)cnn23)c1)S(C)(=O)=O [Example 3 WO2005014597, N-{3-[3-(thiophene-2-carbonyl)-pyrazolo[1,5-a]pyrimidin-7-yl]-phenyl}-N-methyl-methanesulfonamide, reference compound]	64.6	89.8	99.8	58.5	100	90.6							
C#CCN(c1cccc(-c2ccnc3c(C(=O)c4cccs4)cnn23)c1)S(C)(=O)=O [Example 16 WO2005014597, N-{3-[3-(thiophene-2-carbonyl)-pyrazolo[1,5-a]pyrimidin-7-yl]-phenyl}-N-prop-2-ynyl-methanesulfonamide, reference compound]	71.4	95.4			100	99.9	38.8	84.3					
CC(=O)N(C)c1cccc(-c2ccnc3c(C(=O)c4cccs4)cnn23)c1 [Indiplon, N-{3-[3-(thiophene-2-carbonyl)-pyrazolo[1,5-a]pyrimidin-7-yl]-phenyl}-N-methyl-acetamide, reference compound]	70.5	88					73.7	82.4	100	98			inhibition percentage (motor activity) (motor activity of mice; 5 minutes): 74%; inhibition percentage (motor activity) (motor activity of mice; 60 minutes): 67%; Vd [4]: 2.32 L/kg; clearance [4]: 57.5 mL/min/kg; half-life [4]: 0.984 h; AUC0-t [4]: 700 ng·h/mL
CC(=O)N(C)c1cc(-c2ccnc3c(C(=O)c4cccs4)cnn23)ccc1F [Preparative example 2, N-{2-Fluoro-5-[3-(thiophene-2-carbonyl)-pyrazolo[1,5-a]pyrimidin-7-yl]-phenyl}-N-methyl-acetamide]	81.2	95	99.3	67.3	100	95.3	84	92.3	104	110	less cytotoxicity than prior art compounds		inhibition percentage (motor activity) (motor activity of mice; 5 minutes): 84%; inhibition percentage (motor activity) (motor activity of mice; 60 minutes): 84%; Vd [4]: 7.24 L/kg; clearance [4]: 45.7 mL/min/kg; half-life [4]: 1.73 h; AUC0-t [4]: 1100 ng·h/mL; area under the curve higher than Indiplon ([4]; versus Indiplon): 57%; clearance lower than Indiplon ([4]; versus Indiplon): 20%; half-life higher than Indiplon ([4]; versus Indiplon): 76%; volume of distribution higher than Indiplon ([4]; versus Indiplon): 212%
CC(=O)N(C)c1cc(-c2ccnc3c(C(=O)c4cccs4)cnn23)ccc1Cl [Preparative example 4, N-{2-Chloro-5-[3-(thiophene-2-carbonyl)-pyrazolo[1,5-a]pyrimidin-7-yl]-phenyl}-N-methyl-acetamide]		90.3	95.7	8.4	99.8	60		88.7	105	103	less cytotoxicity than prior art compounds	92.86	
CN(c1cc(-c2ccnc3c(C(=O)c4cccs4)cnn23)ccc1F)S(C)(=O)=O [Preparative example 6, N-{2-Fluoro-5-[3-(thiophene-2-carbonyl)-pyrazolo[1,5-a]pyrimidin-7-yl]-phenyl}-N-methyl-methanesulfonamide]	69.4	91.5	97.9	55.9	99.7	88.8	46.2	82	103	106	less cytotoxicity than prior art compounds	84.31	
CN(c1cc(-c2ccnc3c(C(=O)c4cccs4)cnn23)ccc1Cl)S(C)(=O)=O [Preparative example 8, N-{2-Chloro-5-[3-(thiophene-2-carbonyl)-pyrazolo[1,5-a]pyrimidin-7-yl]-phenyl}-N-methyl-methanesulfonamide]		78.3	68.9	0	93.8	40.9					less cytotoxicity than prior art compounds	75.39	melting point: 241 to 243 °C
C#CCN(c1cc(-c2ccnc3c(C(=O)c4cccs4)cnn23)ccc1F)S(C)(=O)=O [Preparative example 10, N-{2-Fluoro-5-[3-(thiophene-2-carbonyl)-pyrazolo[1,5-a]pyrimidin-7-yl]-phenyl}-N-prop-2-ynyl-methanesulfonamide]	91.9	91.6	100	97.5	100	99.7	47.9	90.2					increase in sedative-hypnotic activity (motor activity of mice; versus Example 16 of WO2005014597, low dose, independently of the administration route): higher than 20%; melting point: 149 to 153 °C
CCN(C(C)=O)c1cccc(-c2ccnc3c(C#N)cnn23)c1 [Zaleplon, reference compound]	32.7	85					25.4	64.1					
